“And” between values parts separate entries of the source, which are not always exact repeats. Equal values may be shown once.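 How tested: cells in 96-well plates exposed to compound for 48 hours at five concentrations. Here, GI50 denotes the concentration required for 50% inhibition of growth. TGI: concentration producing complete growth inhibition.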
Tests used:
Test in all cases: NCI-60 cell line screen, 48 h
SNB-75 CNS = test system: SNB-75 CNS
SNB-19 CNS = test system: SNB-19 CNS
UO-31 renal = test system: UO-31 renal
NCI-H460 lung = test system: NCI-H460 lung
SK-MEL-28 melanoma = test system: SK-MEL-28 melanoma
OVCAR-3 ovarian = test system: OVCAR-3 ovarian
CCRF-CEM leukemia = test system: CCRF-CEM leukemia
HS 578T breast = test system: HS 578T breast
786-0 renal = test system: 786-0 renal
HCC-2998 colon = test system: HCC-2998 colon

## CN(c1ccccc1Cl)S(=O)(=O)c1ccccc1
SNB-75 CNS
  TGI: > 100 µM
SNB-19 CNS
  TGI: > 100 µM
UO-31 renal
  TGI: > 100 µM
NCI-H460 lung
  TGI: > 100 µM
SK-MEL-28 melanoma
  TGI: > 100 µM
OVCAR-3 ovarian
  TGI: > 100 µM
CCRF-CEM leukemia
  TGI: > 100 µM
HS 578T breast
  TGI: > 100 µM
786-0 renal
  TGI: > 100 µM

## COc1ccc(-c2c(C(C)=O)c(-c3ccccc3)n(C3OC(COC(C)=O)C(OC(C)=O)C(OC(C)=O)C3OC(C)=O)c(=S)c2C#N)cc1O (stereo not given)
SNB-19 CNS
  TGI: > 100 µM
UO-31 renal
  TGI: > 100 µM
HCC-2998 colon
  TGI: 42 µM and 80.5 µM
NCI-H460 lung
  GI50: 10.8 µM and 43.5 µM
  TGI: 37.4 µM and > 100 µM
SK-MEL-28 melanoma
  GI50: 27.2 µM and 65.9 µM
  TGI: > 100 µM
OVCAR-3 ovarian
  TGI: 41 µM and > 100 µM
CCRF-CEM leukemia
  GI50: 23.6 µM and 70.2 µM
  TGI: > 100 µM
HS 578T breast
  TGI: > 100 µM
786-0 renal
  TGI: > 100 µM

## OC(C1CCCC1=N/N=C1/CCCC1C(O)(C(F)(F)Cl)C(F)(F)Cl)(C(F)(F)Cl)C(F)(F)Cl (stereo not given)
SNB-75 CNS
  TGI: > 10 µM
SNB-19 CNS
  TGI: > 10 µM
HCC-2998 colon
  TGI: > 10 µM
NCI-H460 lung
  TGI: > 10 µM
SK-MEL-28 melanoma
  TGI: > 10 µM
OVCAR-3 ovarian
  TGI: > 10 µM
CCRF-CEM leukemia
  TGI: > 10 µM
HS 578T breast
  TGI: > 10 µM
786-0 renal
  TGI: > 10 µM

## CCOc1ccc(C(c2c(O)c3ccccc3oc2=O)c2c(O)c3ccccc3oc2=O)cc1
SNB-19 CNS
  TGI: > 100 µM
UO-31 renal
  TGI: > 100 µM
SK-MEL-28 melanoma
  TGI: > 100 µM
OVCAR-3 ovarian
  TGI: > 100 µM
CCRF-CEM leukemia
  TGI: > 100 µM
HS 578T breast
  TGI: > 100 µM
786-0 renal
  TGI: > 100 µM

## CCC(C)N1CN(c2ccccc2)C2(CCN(CCCC(=O)c3ccc(F)cc3)CC2)C1=O (stereo not given)
SNB-75 CNS
  TGI: 38.3 µM
UO-31 renal
  TGI: 15.6 µM
SK-MEL-28 melanoma
  TGI: 32.1 µM
OVCAR-3 ovarian
  TGI: 24.8 µM
CCRF-CEM leukemia
  TGI: > 100 µM
HS 578T breast
  TGI: 36.4 µM
786-0 renal
  TGI: > 100 µM

## O=C(O)C1Cc2ccccc2OC1=O (stereo not given)
SNB-19 CNS
  TGI: > 100 µM
UO-31 renal
  TGI: > 100 µM
HCC-2998 colon
  TGI: > 100 µM
NCI-H460 lung
  TGI: > 100 µM
SK-MEL-28 melanoma
  TGI: > 100 µM
OVCAR-3 ovarian
  TGI: > 100 µM
HS 578T breast
  TGI: > 100 µM
786-0 renal
  TGI: > 100 µM

## Oc1cccc2nc3cc(CN4CCOCC4)c(CN4CCOCC4)cc3nc12
SNB-75 CNS
  TGI: > 100 µM
SNB-19 CNS
  TGI: > 100 µM
UO-31 renal
  TGI: > 100 µM
HCC-2998 colon
  TGI: > 100 µM
NCI-H460 lung
  TGI: > 100 µM
SK-MEL-28 melanoma
  TGI: > 100 µM
OVCAR-3 ovarian
  TGI: > 100 µM
CCRF-CEM leukemia
  TGI: > 100 µM
786-0 renal
  TGI: > 100 µM

## Cc1noc(C)c1N=Nc1ccc2nonc2c1N
SNB-75 CNS
  TGI: 42.2 µM
SNB-19 CNS
  TGI: > 100 µM
UO-31 renal
  TGI: > 100 µM
HCC-2998 colon
  TGI: > 100 µM
NCI-H460 lung
  TGI: > 100 µM
SK-MEL-28 melanoma
  TGI: > 100 µM
OVCAR-3 ovarian
  TGI: > 100 µM
CCRF-CEM leukemia
  TGI: > 100 µM
786-0 renal
  TGI: > 100 µM

## N#CCCCCC12C3C(=O)N(c4ccccc4)C(=O)C3ON1O[C@@H]1C(=O)N(c3ccccc3)C(=O)[C@@H]12 (stereo not given in full)
SNB-19 CNS
  TGI: > 100 µM
UO-31 renal
  TGI: > 100 µM
HCC-2998 colon
  TGI: > 100 µM
NCI-H460 lung
  TGI: > 100 µM
SK-MEL-28 melanoma
  TGI: > 100 µM
OVCAR-3 ovarian
  TGI: > 100 µM
CCRF-CEM leukemia
  TGI: > 100 µM
HS 578T breast
  TGI: > 100 µM
786-0 renal
  TGI: > 100 µM

## C/C(=N\Nc1ncnc2ccccc12)c1ccccn1
SNB-75 CNS
  TGI: 39.7 µM
SNB-19 CNS
  TGI: 59.1 µM
UO-31 renal
  TGI: 1.75 µM
HCC-2998 colon
  TGI: 36 µM
NCI-H460 lung
  TGI: 21.2 µM
SK-MEL-28 melanoma
  TGI: 45.6 µM
OVCAR-3 ovarian
  TGI: 12.8 µM
HS 578T breast
  TGI: 47.5 µM
786-0 renal
  TGI: 12.7 µM

## O=C(/C=C\c1ccc(OCCCCCC[P+](c2ccccc2)(c2ccccc2)c2ccccc2)cc1)c1ccc2c(c1)OCCO2
SNB-75 CNS
  GI50: 0.623 µM
  TGI: 2.72 µM
SNB-19 CNS
  GI50: 0.462 µM
  TGI: 1.74 µM
UO-31 renal
  GI50: 1.52 µM
  TGI: 3.2 µM
HCC-2998 colon
  GI50: 1.01 µM
  TGI: 2.2 µM
NCI-H460 lung
  GI50: 1.01 µM
  TGI: 2.5 µM
OVCAR-3 ovarian
  GI50: 0.423 µM
  TGI: 1.61 µM
CCRF-CEM leukemia
  GI50: 1.22 µM
  TGI: 6.15 µM
HS 578T breast
  GI50: 0.827 µM
  TGI: 5.02 µM

## O=C1CSC(c2c(O)ccc3ccccc23)N1n1c(=S)[nH]nc(/C=C/c2c(O)ccc3ccccc23)c1=O (stereo not given)
SNB-75 CNS
  TGI: 11.4 µM
SNB-19 CNS
  TGI: 76.6 µM
UO-31 renal
  TGI: 15.1 µM
HCC-2998 colon
  TGI: 22 µM
NCI-H460 lung
  TGI: 11.5 µM
OVCAR-3 ovarian
  TGI: 17.7 µM
CCRF-CEM leukemia
  TGI: 3.04 µM
HS 578T breast
  TGI: > 100 µM
786-0 renal
  TGI: 14.5 µM

## CC(=O)O[C@@H]1CC2[C@@H](CCC3Cc4nc5c(nc4C[C@@]32C)CC2CC[C@@H]3C(CC[C@@]4(C)C3CC[C@@H]4C(C)CCCC(C)C)[C@@]2(C)C5)C2C[C@@H]3OC4(CCC(C)CO4)C(C)[C@@H]3[C@]21C (stereo not given in full)
SNB-75 CNS
  TGI: 37.2 µM
SNB-19 CNS
  TGI: > 100 µM
HCC-2998 colon
  TGI: > 100 µM
NCI-H460 lung
  TGI: > 100 µM
SK-MEL-28 melanoma
  TGI: > 100 µM
OVCAR-3 ovarian
  TGI: > 100 µM
CCRF-CEM leukemia
  TGI: > 100 µM
HS 578T breast
  TGI: 96.4 µM
786-0 renal
  TGI: > 100 µM

## CCC(c1nc2ccccc2c(=O)n1NC(=O)C(C)(C)C)C1(O)CCCCC1 (stereo not given)
SNB-75 CNS
  TGI: > 100 µM
SNB-19 CNS
  TGI: > 100 µM
UO-31 renal
  TGI: > 100 µM
NCI-H460 lung
  TGI: > 100 µM
SK-MEL-28 melanoma
  TGI: > 100 µM
OVCAR-3 ovarian
  TGI: > 100 µM
CCRF-CEM leukemia
  TGI: > 100 µM
HS 578T breast
  TGI: > 100 µM
786-0 renal
  TGI: > 100 µM

## COC(=O)Nc1nc2ccc(NS(=O)(=O)c3ccc(F)cc3)cc2[nH]1
SNB-75 CNS
  TGI: 70.1 µM
SNB-19 CNS
  TGI: > 100 µM
UO-31 renal
  TGI: > 100 µM
NCI-H460 lung
  TGI: > 100 µM
SK-MEL-28 melanoma
  TGI: > 100 µM
OVCAR-3 ovarian
  TGI: 16.2 µM
CCRF-CEM leukemia
  TGI: > 100 µM
HS 578T breast
  TGI: 9.66 µM
786-0 renal
  TGI: > 100 µM
